# Experimental data taken from the supplement of paper PMC10307832.
# Assays:
# Test in all cases: relative viability (nuclei count vs DMSO), 5 days (fraction); higher = more cells survive
# Apatinib + Palbociclib = compound: N#CC1(c2ccc(NC(=O)c3cccnc3NCc3ccncc3)cc2)CCCC1 [Apatinib] + CC(=O)c1c(C)c2cnc(Nc3ccc(N4CCNCC4)cn3)nc2n(C2CCCC2)c1=O [Palbociclib] (partner 0.5 µM)
# Procedure, shortened: (§1)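 Cells from lung cancer lines were seeded into 1536-well plates and, one day later, dosed by pin tool. Treatments were either a single drug or a fixed dose of an anchor drug with five library-drug doses (not always all listed) in √10 steps. After 5 days, nuclei were stained in a one-step fixation (final 0.05% Triton X-100, 1% formaldehyde, 1 ug/ml Hoechst) and counted on 4× images, and relative viability is the treated-to-vehicle nuclei ratio, as the median of duplicate plates.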
# Metformin + AZD7762 = compound: CN(C)C(=N)NC(=N)N [Metformin] + NC(=O)Nc1cc(-c2cccc(F)c2)sc1C(=O)N[C@H]1CCCNC1 [AZD7762] (partner 0.2 µM)
# Procedure, shortened: as §1
# Metformin + Palbociclib = compound: CN(C)C(=N)NC(=N)N [Metformin] + CC(=O)c1c(C)c2cnc(Nc3ccc(N4CCNCC4)cn3)nc2n(C2CCCC2)c1=O [Palbociclib] (partner 0.5 µM)
# Procedure, shortened: as §1
# Metformin + Luminespib = compound: CN(C)C(=N)NC(=N)N [Metformin] + CCNC(=O)c1noc(-c2cc(C(C)C)c(O)cc2O)c1-c1ccc(CN2CCOCC2)cc1 [Luminespib] (partner 0.01 µM)
# Procedure, shortened: as §1
cell line,measurement,setting,value
A-427,relative viability,Apatinib + Palbociclib; first compound 0.08 µM,0.52
same,relative viability,Apatinib + Palbociclib; first compound 0.253 µM,0.534
same,relative viability,Apatinib + Palbociclib; first compound 0.8 µM,0.507
same,relative viability,Apatinib + Palbociclib; first compound 2.53 µM,0.518
same,relative viability,Apatinib + Palbociclib; first compound 8 µM,0.453
same,relative viability,Metformin + AZD7762; first compound 10 µM,0.634
same,relative viability,Metformin + AZD7762; first compound 31.62 µM,0.717
same,relative viability,Metformin + AZD7762; first compound 100 µM,0.771
same,relative viability,Metformin + AZD7762; first compound 316.23 µM,0.623
same,relative viability,Metformin + AZD7762; first compound 1000 µM,0.633
same,relative viability,Metformin + Palbociclib; first compound 10 µM,0.501
same,relative viability,Metformin + Palbociclib; first compound 31.62 µM,0.546
same,relative viability,Metformin + Palbociclib; first compound 100 µM,0.516
same,relative viability,Metformin + Palbociclib; first compound 316.23 µM,0.53
same,relative viability,Metformin + Palbociclib; first compound 1000 µM,0.389
same,relative viability,Metformin + Luminespib; first compound 10 µM,1.21
same,relative viability,Metformin + Luminespib; first compound 31.62 µM,0.972
same,relative viability,Metformin + Luminespib; first compound 100 µM,1.04
same,relative viability,Metformin + Luminespib; first compound 316.23 µM,0.952
same,relative viability,Metformin + Luminespib; first compound 1000 µM,0.91
NCI-H2342,relative viability,Apatinib + Palbociclib; first compound 0.08 µM,0.497
same,relative viability,Apatinib + Palbociclib; first compound 0.253 µM,0.524
same,relative viability,Apatinib + Palbociclib; first compound 0.8 µM,0.49
same,relative viability,Apatinib + Palbociclib; first compound 2.53 µM,0.498
same,relative viability,Apatinib + Palbociclib; first compound 8 µM,0.572
same,relative viability,Metformin + AZD7762; first compound 31.62 µM,0.441
same,relative viability,Metformin + AZD7762; first compound 100 µM,0.366
same,relative viability,Metformin + AZD7762; first compound 316.23 µM,0.46
same,relative viability,Metformin + AZD7762; first compound 1000 µM,0.386
same,relative viability,Metformin + Palbociclib; first compound 31.62 µM,0.681
same,relative viability,Metformin + Palbociclib; first compound 100 µM,0.548
same,relative viability,Metformin + Palbociclib; first compound 316.23 µM,0.522
same,relative viability,Metformin + Palbociclib; first compound 1000 µM,0.519
same,relative viability,Metformin + Luminespib; first compound 10 µM,0.687
same,relative viability,Metformin + Luminespib; first compound 31.62 µM,0.706
same,relative viability,Metformin + Luminespib; first compound 100 µM,0.726
same,relative viability,Metformin + Luminespib; first compound 316.23 µM,0.731
same,relative viability,Metformin + Luminespib; first compound 1000 µM,0.71
201T,relative viability,Apatinib + Palbociclib; first compound 0.08 µM,0.366
same,relative viability,Apatinib + Palbociclib; first compound 0.253 µM,0.362
same,relative viability,Apatinib + Palbociclib; first compound 0.8 µM,0.354
same,relative viability,Apatinib + Palbociclib; first compound 2.53 µM,0.381
same,relative viability,Apatinib + Palbociclib; first compound 8 µM,0.292
same,relative viability,Metformin + AZD7762; first compound 31.62 µM,0.5
same,relative viability,Metformin + AZD7762; first compound 100 µM,0.581
same,relative viability,Metformin + AZD7762; first compound 316.23 µM,0.476
same,relative viability,Metformin + AZD7762; first compound 1000 µM,0.609
same,relative viability,Metformin + Palbociclib; first compound 31.62 µM,0.376
same,relative viability,Metformin + Palbociclib; first compound 100 µM,0.397
same,relative viability,Metformin + Palbociclib; first compound 316.23 µM,0.329
same,relative viability,Metformin + Palbociclib; first compound 1000 µM,0.382
same,relative viability,Metformin + Luminespib; first compound 31.62 µM,1.15
same,relative viability,Metformin + Luminespib; first compound 100 µM,1.1
same,relative viability,Metformin + Luminespib; first compound 316.23 µM,1.06
same,relative viability,Metformin + Luminespib; first compound 1000 µM,1.03
NCI-H522,relative viability,Apatinib + Palbociclib; first compound 0.08 µM,1.03
same,relative viability,Apatinib + Palbociclib; first compound 0.253 µM,1.18
same,relative viability,Apatinib + Palbociclib; first compound 0.8 µM,1.06
same,relative viability,Apatinib + Palbociclib; first compound 2.53 µM,0.928
same,relative viability,Apatinib + Palbociclib; first compound 8 µM,0.903
same,relative viability,Metformin + AZD7762; first compound 10 µM,1.02
same,relative viability,Metformin + AZD7762; first compound 31.62 µM,0.986
same,relative viability,Metformin + AZD7762; first compound 100 µM,0.97
same,relative viability,Metformin + AZD7762; first compound 316.23 µM,0.985
same,relative viability,Metformin + AZD7762; first compound 1000 µM,1.07
same,relative viability,Metformin + Palbociclib; first compound 10 µM,1.7
same,relative viability,Metformin + Palbociclib; first compound 31.62 µM,1.24
same,relative viability,Metformin + Palbociclib; first compound 100 µM,1.06
same,relative viability,Metformin + Palbociclib; first compound 316.23 µM,1.08
same,relative viability,Metformin + Palbociclib; first compound 1000 µM,1.21
same,relative viability,Metformin + Luminespib; first compound 10 µM,1.4
same,relative viability,Metformin + Luminespib; first compound 31.62 µM,1.27
same,relative viability,Metformin + Luminespib; first compound 100 µM,1.65
same,relative viability,Metformin + Luminespib; first compound 316.23 µM,1.54
same,relative viability,Metformin + Luminespib; first compound 1000 µM,1.33
NCI-H2023,relative viability,Apatinib + Palbociclib; first compound 0.08 µM,0.381
same,relative viability,Apatinib + Palbociclib; first compound 0.253 µM,0.402
same,relative viability,Apatinib + Palbociclib; first compound 0.8 µM,0.354
same,relative viability,Apatinib + Palbociclib; first compound 2.53 µM,0.376
same,relative viability,Apatinib + Palbociclib; first compound 8 µM,0.307
same,relative viability,Metformin + Palbociclib; first compound 10 µM,0.321
same,relative viability,Metformin + Palbociclib; first compound 31.62 µM,0.341
same,relative viability,Metformin + Palbociclib; first compound 100 µM,0.3
same,relative viability,Metformin + Palbociclib; first compound 316.23 µM,0.285
same,relative viability,Metformin + Palbociclib; first compound 1000 µM,0.237
same,relative viability,Metformin + Luminespib; first compound 10 µM,0.649
same,relative viability,Metformin + Luminespib; first compound 31.62 µM,0.725
same,relative viability,Metformin + Luminespib; first compound 100 µM,0.711
same,relative viability,Metformin + Luminespib; first compound 316.23 µM,0.67
same,relative viability,Metformin + Luminespib; first compound 1000 µM,0.676
NCI-H2085,relative viability,Apatinib + Palbociclib; first compound 0.08 µM,0.469
same,relative viability,Apatinib + Palbociclib; first compound 0.253 µM,0.493
same,relative viability,Apatinib + Palbociclib; first compound 0.8 µM,0.487
same,relative viability,Apatinib + Palbociclib; first compound 2.53 µM,0.416
same,relative viability,Apatinib + Palbociclib; first compound 8 µM,0.437
same,relative viability,Metformin + AZD7762; first compound 10 µM,0.873
same,relative viability,Metformin + AZD7762; first compound 31.62 µM,0.99
same,relative viability,Metformin + AZD7762; first compound 100 µM,0.979
same,relative viability,Metformin + AZD7762; first compound 316.23 µM,0.893
same,relative viability,Metformin + AZD7762; first compound 1000 µM,0.989
same,relative viability,Metformin + Palbociclib; first compound 10 µM,0.475
same,relative viability,Metformin + Palbociclib; first compound 31.62 µM,0.447
same,relative viability,Metformin + Palbociclib; first compound 100 µM,0.469
same,relative viability,Metformin + Palbociclib; first compound 316.23 µM,0.435
same,relative viability,Metformin + Palbociclib; first compound 1000 µM,0.453
same,relative viability,Metformin + Luminespib; first compound 10 µM,0.429
same,relative viability,Metformin + Luminespib; first compound 31.62 µM,0.441
same,relative viability,Metformin + Luminespib; first compound 100 µM,0.404
same,relative viability,Metformin + Luminespib; first compound 316.23 µM,0.336
same,relative viability,Metformin + Luminespib; first compound 1000 µM,0.475
LXF-289,relative viability,Apatinib + Palbociclib; first compound 0.08 µM,0.594
same,relative viability,Apatinib + Palbociclib; first compound 0.253 µM,0.593
same,relative viability,Apatinib + Palbociclib; first compound 0.8 µM,0.567
same,relative viability,Apatinib + Palbociclib; first compound 2.53 µM,0.568
same,relative viability,Apatinib + Palbociclib; first compound 8 µM,0.562
same,relative viability,Metformin + AZD7762; first compound 10 µM,1.05
same,relative viability,Metformin + AZD7762; first compound 31.62 µM,1.02
same,relative viability,Metformin + AZD7762; first compound 100 µM,1.01
same,relative viability,Metformin + AZD7762; first compound 316.23 µM,1.05
same,relative viability,Metformin + AZD7762; first compound 1000 µM,1.07
same,relative viability,Metformin + Palbociclib; first compound 10 µM,0.516
same,relative viability,Metformin + Palbociclib; first compound 31.62 µM,0.557
same,relative viability,Metformin + Palbociclib; first compound 100 µM,0.568
same,relative viability,Metformin + Palbociclib; first compound 316.23 µM,0.535
same,relative viability,Metformin + Palbociclib; first compound 1000 µM,0.564
same,relative viability,Metformin + Luminespib; first compound 10 µM,0.693
same,relative viability,Metformin + Luminespib; first compound 31.62 µM,0.683
same,relative viability,Metformin + Luminespib; first compound 100 µM,0.724
same,relative viability,Metformin + Luminespib; first compound 316.23 µM,0.625
same,relative viability,Metformin + Luminespib; first compound 1000 µM,0.621
NCI-H1975,relative viability,Apatinib + Palbociclib; first compound 0.08 µM,0.654
same,relative viability,Apatinib + Palbociclib; first compound 0.253 µM,0.634
same,relative viability,Apatinib + Palbociclib; first compound 0.8 µM,0.597
same,relative viability,Apatinib + Palbociclib; first compound 2.53 µM,0.522
same,relative viability,Apatinib + Palbociclib; first compound 8 µM,0.526
same,relative viability,Metformin + AZD7762; first compound 10 µM,0.772
same,relative viability,Metformin + AZD7762; first compound 31.62 µM,0.734
same,relative viability,Metformin + AZD7762; first compound 100 µM,0.681
same,relative viability,Metformin + AZD7762; first compound 316.23 µM,0.689
same,relative viability,Metformin + AZD7762; first compound 1000 µM,0.637
same,relative viability,Metformin + Palbociclib; first compound 10 µM,0.438
same,relative viability,Metformin + Palbociclib; first compound 31.62 µM,0.682
same,relative viability,Metformin + Palbociclib; first compound 100 µM,0.584
same,relative viability,Metformin + Palbociclib; first compound 316.23 µM,0.591
same,relative viability,Metformin + Palbociclib; first compound 1000 µM,0.644
same,relative viability,Metformin + Luminespib; first compound 10 µM,0.156
same,relative viability,Metformin + Luminespib; first compound 31.62 µM,0.122
same,relative viability,Metformin + Luminespib; first compound 100 µM,0.363
same,relative viability,Metformin + Luminespib; first compound 316.23 µM,0.335
same,relative viability,Metformin + Luminespib; first compound 1000 µM,0.336
COR-L 105,relative viability,Apatinib + Palbociclib; first compound 0.08 µM,0.428
same,relative viability,Apatinib + Palbociclib; first compound 0.253 µM,0.397
same,relative viability,Apatinib + Palbociclib; first compound 0.8 µM,0.365
same,relative viability,Apatinib + Palbociclib; first compound 2.53 µM,0.365
same,relative viability,Apatinib + Palbociclib; first compound 8 µM,0.42
same,relative viability,Metformin + Palbociclib; first compound 10 µM,0.419
same,relative viability,Metformin + Palbociclib; first compound 31.62 µM,0.44
same,relative viability,Metformin + Palbociclib; first compound 100 µM,0.464
same,relative viability,Metformin + Palbociclib; first compound 316.23 µM,0.433
same,relative viability,Metformin + Palbociclib; first compound 1000 µM,0.441
same,relative viability,Metformin + Luminespib; first compound 10 µM,0.85
same,relative viability,Metformin + Luminespib; first compound 31.62 µM,0.736
same,relative viability,Metformin + Luminespib; first compound 100 µM,0.749
same,relative viability,Metformin + Luminespib; first compound 316.23 µM,0.538
same,relative viability,Metformin + Luminespib; first compound 1000 µM,0.795
